The source made the active and inactive calls.
What was measured:
[1] = biological target: T1, Endoribonuclease toxin MazF (Escherichia coli K-12, UniProt P0AE70); assay: activation of MazEF endoribonuclease cleavage – biochemical, fluorescence, single-stranded RNA substrate, uHTS hits, dose response (AID 588481); type: functional
T1 sequence (P0AE70 whole entry): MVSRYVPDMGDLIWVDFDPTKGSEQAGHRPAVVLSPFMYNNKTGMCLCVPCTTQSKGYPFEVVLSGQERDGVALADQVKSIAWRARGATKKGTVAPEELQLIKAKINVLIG

[2] = biological target: T1, Endoribonuclease toxin MazF; assay: substrate-only fluorescence increase artefacts – biochemical, single-stranded RNase substrate, counter-screen for MazEF activator project, dose response (AID 588502); type: functional
[3] = biological target: Bcl-2-like protein 1 (Homo sapiens, UniProt Q07817); assay: blockers of BCLXL peptide binding – biochemical, fluorescence polarization, 1536-well, selectivity assay for MCL1 inhibitor project, dose response (AID 2218)
Bcl-2-like protein 1, sequence (Q07817 whole entry): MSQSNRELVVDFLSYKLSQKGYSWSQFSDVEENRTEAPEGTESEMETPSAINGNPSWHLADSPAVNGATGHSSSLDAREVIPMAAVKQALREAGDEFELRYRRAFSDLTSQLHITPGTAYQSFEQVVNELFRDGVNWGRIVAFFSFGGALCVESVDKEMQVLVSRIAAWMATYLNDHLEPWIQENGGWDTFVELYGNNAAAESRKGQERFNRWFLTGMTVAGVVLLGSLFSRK

[4] = biological target: Induced myeloid leukemia cell differentiation protein Mcl-1 (Homo sapiens, UniProt Q07820); assay: blockers of MCL1 binding to BIM peptide – biochemical, fluorescence polarization, BIM-BH3 peptide, 1536-well, dose response (AID 2217)
Induced myeloid leukemia cell differentiation protein Mcl-1, sequence (Q07820 whole entry): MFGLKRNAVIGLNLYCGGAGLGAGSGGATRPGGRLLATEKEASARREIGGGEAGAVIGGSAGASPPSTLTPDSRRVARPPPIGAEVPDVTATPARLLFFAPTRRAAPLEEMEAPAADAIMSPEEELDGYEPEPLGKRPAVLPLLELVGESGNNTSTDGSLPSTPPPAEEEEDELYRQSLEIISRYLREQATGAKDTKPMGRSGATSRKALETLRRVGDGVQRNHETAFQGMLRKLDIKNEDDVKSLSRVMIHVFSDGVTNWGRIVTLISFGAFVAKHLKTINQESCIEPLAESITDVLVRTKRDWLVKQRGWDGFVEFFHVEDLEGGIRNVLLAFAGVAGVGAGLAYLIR

[5] = A High Throughput Confirmatory Assay used to Identify Novel Compounds that Inhibit Mycobacterium Tuberculosis in the absence of Glycerol.; type: functional
[6] = system: Escherichia coli; assay: microbe, parasite or virus in culture
[7] = Luminescence Cell-Based Dose Response to Identify Activators of 5'UTR Stem-Loop Driven Prion Protein mRNA Translation in H4-C Neuroglioblastoma Cells. [Related pubchem assays: 1829 (Project Summary), 1814 (Primary HTS)]; type: functional
[8] = system: H4; assay: Luminescence Cell-Based Dose Response HTS to Identify Activators of 5'UTR Stem-Loop Driven Prion Protein mRNA Translation in H4 Neuroglioblastoma Cells. [Related pubchem assays: 1829 (Project Summary), 1814 (Primary HTS)]; type: functional; settings: Homo sapiens
[9] = Luminescence Cell-Based Dose Response HTS to Identify Activators of Luciferase Translation or Activity in H4 […] Cells. [Related pubchem assays: 1829 (Project Summary), 1814 (Primary HTS)]; type: functional
[10] = Luminescence Cell-Based Dose Confirmation to Identify Activators of 5'UTR Stem-Loop Driven Alpha-Synuclein mRNA Translation in H4 Neuroglioblastoma Cells. [Related pubchem assays: 1829 (Project Summary), 1814 (Primary HTS)]; type: functional
[11] = Luminescence Cell-Based Dose Response to Identify Activators of Luciferase Translation or Activity in H4-C Neuroglioblastoma Cells. [Related pubchem assays: 1829 (Project Summary), 1814 (Primary HTS)]; type: functional
[12] = biological target: Heat shock protein HSP 90-alpha (Homo sapiens, UniProt P07900); type: functional, organism-based
[13] = biological target: Galanin receptor type 2 (Homo sapiens, UniProt O43603); assay: Dose Response cell-based high-throughput screening assay to identify antagonists of galanin receptor 2 (GALR2). [Related pubchem assays: 828, 866 ]; type: functional
Galanin receptor type 2, sequence (O43603 whole entry): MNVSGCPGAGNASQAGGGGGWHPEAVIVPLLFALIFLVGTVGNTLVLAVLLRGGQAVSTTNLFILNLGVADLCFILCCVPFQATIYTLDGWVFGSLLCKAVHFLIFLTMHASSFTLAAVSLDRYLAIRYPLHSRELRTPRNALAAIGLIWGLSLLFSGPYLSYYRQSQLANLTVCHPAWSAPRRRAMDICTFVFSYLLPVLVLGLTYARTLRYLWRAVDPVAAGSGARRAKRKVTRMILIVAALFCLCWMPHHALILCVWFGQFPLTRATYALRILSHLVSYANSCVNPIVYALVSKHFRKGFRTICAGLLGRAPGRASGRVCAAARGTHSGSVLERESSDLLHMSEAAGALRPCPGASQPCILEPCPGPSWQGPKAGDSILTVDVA

[14] = fluconazole-exposed Candida albicans growth modulators – fluorescence, retest, confirmation (AID 2467); type: functional, cell-based
[15] = system: BJ; assay: cells; type: functional, cell-based; settings: Homo sapiens
[16] = biological target: G-protein coupled receptor 55 (Homo sapiens, UniProt Q9Y2T6); assay: selective activators of receptor GPR55 – imaging, U2OS cells, beta-arrestin-GFP redistribution, primary screen (AID 1961); type: functional
G-protein coupled receptor 55, sequence (Q9Y2T6 whole entry): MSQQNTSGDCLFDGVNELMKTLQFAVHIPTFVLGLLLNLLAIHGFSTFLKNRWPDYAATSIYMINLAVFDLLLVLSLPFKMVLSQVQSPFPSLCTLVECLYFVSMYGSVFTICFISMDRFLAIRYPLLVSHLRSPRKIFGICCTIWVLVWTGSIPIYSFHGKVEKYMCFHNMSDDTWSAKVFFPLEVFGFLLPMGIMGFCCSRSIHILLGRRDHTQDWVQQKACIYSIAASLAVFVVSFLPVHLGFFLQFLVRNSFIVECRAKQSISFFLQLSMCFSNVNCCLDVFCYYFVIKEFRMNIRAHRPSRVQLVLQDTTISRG

[17] = system: BJ; assay: BJ-TERT-LT-ST fibroblast viability loss – cell-based, RAS-independent, luminescence, dose response (AID 1935); type: functional; settings: Homo sapiens;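 note: BJ fibroblasts immortalized with TERT plus LT and ST oncogenes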
[18] = biological target: T2, Microphthalmia-associated transcription factor (Homo sapiens, UniProt O75030); assay: reducers of TRPM1 reporter luminescence, concentration series – cell-based, SK-MEL-5, cherry-picked, set 3, MITF inhibitor project, dose response (AID 493073); type: functional;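 note: SK-MEL-5 melanoma cells with luciferase driven by the MITF target TRPM1 promoter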
T2 sequence (O75030 whole entry): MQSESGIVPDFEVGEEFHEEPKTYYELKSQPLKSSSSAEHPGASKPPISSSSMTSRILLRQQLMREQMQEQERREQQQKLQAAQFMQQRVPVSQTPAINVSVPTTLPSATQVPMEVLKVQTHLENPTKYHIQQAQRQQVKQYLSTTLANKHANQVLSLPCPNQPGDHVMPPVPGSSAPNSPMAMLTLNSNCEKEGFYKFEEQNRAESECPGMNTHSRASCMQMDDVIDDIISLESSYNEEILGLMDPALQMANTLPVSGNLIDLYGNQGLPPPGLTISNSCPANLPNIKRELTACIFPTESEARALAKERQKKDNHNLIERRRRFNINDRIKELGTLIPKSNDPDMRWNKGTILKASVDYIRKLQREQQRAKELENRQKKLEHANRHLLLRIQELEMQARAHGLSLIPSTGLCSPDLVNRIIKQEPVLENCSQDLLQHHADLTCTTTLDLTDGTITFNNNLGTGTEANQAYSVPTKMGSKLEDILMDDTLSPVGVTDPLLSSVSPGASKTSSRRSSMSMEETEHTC

[19] = biological target: T3, Heat shock factor protein 1 (Mus musculus, UniProt P38532); assay: enhancement of HSF1-driven luciferase signal – cell-based, NIH3T3, luminescence, dose retest, confirmation (AID 435004); type: functional;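 note: stress induced by proteasome inhibitor MG132 added 30 min after compound; luciferase reporter driven by HSF1 response element in NIH3T3 cells; actives raise luminescence as potentiators of the MG132 stress response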
T3 sequence (P38532 whole entry): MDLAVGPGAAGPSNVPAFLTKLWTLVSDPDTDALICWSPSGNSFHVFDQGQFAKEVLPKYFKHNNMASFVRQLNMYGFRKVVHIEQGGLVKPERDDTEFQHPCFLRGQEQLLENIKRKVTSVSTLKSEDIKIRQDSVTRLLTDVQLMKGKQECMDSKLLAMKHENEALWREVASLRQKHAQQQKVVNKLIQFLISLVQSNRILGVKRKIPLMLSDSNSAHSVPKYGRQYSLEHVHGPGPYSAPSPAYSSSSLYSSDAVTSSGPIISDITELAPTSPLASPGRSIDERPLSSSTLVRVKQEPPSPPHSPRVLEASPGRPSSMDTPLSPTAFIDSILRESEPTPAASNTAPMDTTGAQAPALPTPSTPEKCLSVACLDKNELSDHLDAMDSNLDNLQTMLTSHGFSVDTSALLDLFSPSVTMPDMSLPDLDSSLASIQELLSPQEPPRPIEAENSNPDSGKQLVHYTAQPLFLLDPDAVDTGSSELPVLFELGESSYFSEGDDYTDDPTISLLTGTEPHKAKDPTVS

[20] = DRD fibroblast viability loss – cell-based, non-viral oncogenic, luminescence, dose response (AID 1934); type: functional; settings: Homo sapiens
[21] = NIH-3T3 fibroblast cytotoxicity, dose response, cytotoxicity control, cell-based, fluorescence, Alamar Blue, secondary assay (AID 2327); type: functional;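 note: NIH-3T3 mouse fibroblasts cultured with fluconazole at 8 µg/mL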
[22] = system: BJ; assay: BJ-TERT fibroblast viability loss – cell-based, RAS-independent, luminescence, dose response (AID 1933); type: functional; settings: Homo sapiens
[23] = biological target: T4, High affinity choline transporter 1 (Homo sapiens, UniProt Q9GZV3); assay: human choline transporter blockers, potency – cell-based, 5-point CRC, membrane potential dye, dose response (AID 504840); type: functional
T4 sequence (Q9GZV3 whole entry): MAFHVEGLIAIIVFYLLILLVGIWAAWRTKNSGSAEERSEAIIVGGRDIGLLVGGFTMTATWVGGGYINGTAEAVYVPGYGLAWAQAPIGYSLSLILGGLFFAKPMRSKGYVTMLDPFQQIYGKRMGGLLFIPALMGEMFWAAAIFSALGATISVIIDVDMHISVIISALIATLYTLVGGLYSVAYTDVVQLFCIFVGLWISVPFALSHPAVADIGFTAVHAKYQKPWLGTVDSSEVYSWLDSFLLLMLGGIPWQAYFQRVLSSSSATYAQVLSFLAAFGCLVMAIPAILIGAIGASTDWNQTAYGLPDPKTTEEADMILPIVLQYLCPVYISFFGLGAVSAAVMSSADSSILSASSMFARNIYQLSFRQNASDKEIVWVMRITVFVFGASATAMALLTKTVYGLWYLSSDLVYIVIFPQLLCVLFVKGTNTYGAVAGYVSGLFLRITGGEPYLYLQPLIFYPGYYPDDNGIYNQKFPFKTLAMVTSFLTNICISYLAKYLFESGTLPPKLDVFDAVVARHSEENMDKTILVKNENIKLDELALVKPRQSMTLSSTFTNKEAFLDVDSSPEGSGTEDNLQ

[24] = biological target: T5, Mannose-6-phosphate isomerase (Homo sapiens, UniProt P34949); assay: MPI enzyme activity inhibition – biochemical, fluorescence intensity, coupled assay, primary screen (AID 1209)
T5 sequence (P34949 whole entry): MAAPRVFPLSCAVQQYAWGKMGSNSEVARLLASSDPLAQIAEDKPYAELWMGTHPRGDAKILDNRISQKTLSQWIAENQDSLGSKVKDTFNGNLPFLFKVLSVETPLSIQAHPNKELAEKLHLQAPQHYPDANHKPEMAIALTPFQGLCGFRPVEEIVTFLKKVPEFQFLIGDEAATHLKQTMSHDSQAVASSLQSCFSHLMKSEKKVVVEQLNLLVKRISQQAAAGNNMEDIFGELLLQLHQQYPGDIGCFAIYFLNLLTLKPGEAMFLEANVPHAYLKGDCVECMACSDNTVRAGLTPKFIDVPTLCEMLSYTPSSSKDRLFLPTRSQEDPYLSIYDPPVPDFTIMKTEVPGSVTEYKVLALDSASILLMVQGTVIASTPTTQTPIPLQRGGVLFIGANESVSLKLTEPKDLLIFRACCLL

[25] = biological target: T5, Mannose-6-phosphate isomerase; assay: MPI inhibition at elevated mannose 6-phosphate – biochemical, fluorescence intensity, high mannose 6-phosphate, primary screen (AID 1220)
[26] = biological target: T6, Histone-lysine N-methyltransferase NSD2 (Homo sapiens, UniProt O96028); type: biochemical
T6 sequence (O96028 whole entry): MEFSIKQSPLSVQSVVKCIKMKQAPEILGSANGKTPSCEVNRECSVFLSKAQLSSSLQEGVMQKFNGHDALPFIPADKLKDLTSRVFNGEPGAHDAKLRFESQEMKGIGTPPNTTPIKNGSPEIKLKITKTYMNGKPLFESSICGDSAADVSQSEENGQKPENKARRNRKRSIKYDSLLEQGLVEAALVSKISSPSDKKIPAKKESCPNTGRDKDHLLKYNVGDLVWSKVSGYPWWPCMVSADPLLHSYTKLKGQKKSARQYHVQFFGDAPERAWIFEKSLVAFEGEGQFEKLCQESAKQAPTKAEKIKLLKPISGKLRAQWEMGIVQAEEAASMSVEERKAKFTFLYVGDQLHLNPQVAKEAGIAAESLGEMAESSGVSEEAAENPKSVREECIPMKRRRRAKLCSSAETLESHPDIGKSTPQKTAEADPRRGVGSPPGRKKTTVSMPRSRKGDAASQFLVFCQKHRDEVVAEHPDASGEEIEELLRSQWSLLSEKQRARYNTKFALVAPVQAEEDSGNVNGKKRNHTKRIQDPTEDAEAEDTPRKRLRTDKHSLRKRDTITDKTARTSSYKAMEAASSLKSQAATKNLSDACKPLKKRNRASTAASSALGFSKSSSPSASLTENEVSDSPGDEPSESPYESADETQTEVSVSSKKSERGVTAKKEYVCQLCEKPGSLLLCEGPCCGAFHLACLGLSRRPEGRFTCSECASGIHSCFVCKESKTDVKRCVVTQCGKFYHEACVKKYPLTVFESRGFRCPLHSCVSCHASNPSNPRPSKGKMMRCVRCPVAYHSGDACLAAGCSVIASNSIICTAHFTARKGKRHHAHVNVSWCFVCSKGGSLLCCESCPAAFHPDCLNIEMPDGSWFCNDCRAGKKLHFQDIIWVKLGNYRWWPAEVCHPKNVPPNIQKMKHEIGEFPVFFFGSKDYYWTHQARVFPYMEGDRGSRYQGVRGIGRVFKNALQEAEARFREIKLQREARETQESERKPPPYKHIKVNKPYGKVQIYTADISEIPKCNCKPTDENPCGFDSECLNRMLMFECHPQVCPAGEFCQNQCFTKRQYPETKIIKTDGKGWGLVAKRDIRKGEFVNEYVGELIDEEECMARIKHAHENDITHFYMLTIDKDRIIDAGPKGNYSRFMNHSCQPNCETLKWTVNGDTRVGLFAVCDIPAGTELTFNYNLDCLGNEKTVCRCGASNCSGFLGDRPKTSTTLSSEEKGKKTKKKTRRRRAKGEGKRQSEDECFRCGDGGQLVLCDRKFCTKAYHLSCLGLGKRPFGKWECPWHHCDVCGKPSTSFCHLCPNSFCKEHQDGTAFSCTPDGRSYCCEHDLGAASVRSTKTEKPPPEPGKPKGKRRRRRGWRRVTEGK

[27] = biological target: NADPH oxidase 1 (Homo sapiens, UniProt Q9Y5S8); type: functional, cell-based;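 note: Cell-based assay with luminescence read-out, IC50 derived from inhibitor dose-response curves; intracellular ROS from endogenous NOX1 in intact HT29 colon cancer cells; potency of inhibitors that lower the ROS luminescence signal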
NADPH oxidase 1, sequence (Q9Y5S8 whole entry): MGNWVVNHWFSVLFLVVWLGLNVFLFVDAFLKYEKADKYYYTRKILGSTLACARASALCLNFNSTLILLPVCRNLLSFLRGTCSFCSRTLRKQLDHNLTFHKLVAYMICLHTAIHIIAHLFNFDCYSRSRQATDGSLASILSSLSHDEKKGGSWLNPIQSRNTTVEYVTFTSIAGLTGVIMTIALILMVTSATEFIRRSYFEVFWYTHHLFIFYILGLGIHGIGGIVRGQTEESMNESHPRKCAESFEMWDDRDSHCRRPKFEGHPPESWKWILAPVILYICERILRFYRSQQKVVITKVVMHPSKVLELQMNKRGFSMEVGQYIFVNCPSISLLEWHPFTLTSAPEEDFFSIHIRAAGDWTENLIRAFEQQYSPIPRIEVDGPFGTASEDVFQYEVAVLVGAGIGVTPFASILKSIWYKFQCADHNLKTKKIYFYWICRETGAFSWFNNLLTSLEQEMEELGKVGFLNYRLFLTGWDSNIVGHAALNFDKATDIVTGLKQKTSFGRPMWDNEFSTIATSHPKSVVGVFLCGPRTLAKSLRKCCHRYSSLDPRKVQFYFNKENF

[28] = biological target: Protein-tyrosine kinase 2-beta (Homo sapiens, UniProt Q14289);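 note: potency of inhibitors of PYK2 kinase phosphorylation of poly-GT substrate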
Protein-tyrosine kinase 2-beta, sequence (Q14289 whole entry): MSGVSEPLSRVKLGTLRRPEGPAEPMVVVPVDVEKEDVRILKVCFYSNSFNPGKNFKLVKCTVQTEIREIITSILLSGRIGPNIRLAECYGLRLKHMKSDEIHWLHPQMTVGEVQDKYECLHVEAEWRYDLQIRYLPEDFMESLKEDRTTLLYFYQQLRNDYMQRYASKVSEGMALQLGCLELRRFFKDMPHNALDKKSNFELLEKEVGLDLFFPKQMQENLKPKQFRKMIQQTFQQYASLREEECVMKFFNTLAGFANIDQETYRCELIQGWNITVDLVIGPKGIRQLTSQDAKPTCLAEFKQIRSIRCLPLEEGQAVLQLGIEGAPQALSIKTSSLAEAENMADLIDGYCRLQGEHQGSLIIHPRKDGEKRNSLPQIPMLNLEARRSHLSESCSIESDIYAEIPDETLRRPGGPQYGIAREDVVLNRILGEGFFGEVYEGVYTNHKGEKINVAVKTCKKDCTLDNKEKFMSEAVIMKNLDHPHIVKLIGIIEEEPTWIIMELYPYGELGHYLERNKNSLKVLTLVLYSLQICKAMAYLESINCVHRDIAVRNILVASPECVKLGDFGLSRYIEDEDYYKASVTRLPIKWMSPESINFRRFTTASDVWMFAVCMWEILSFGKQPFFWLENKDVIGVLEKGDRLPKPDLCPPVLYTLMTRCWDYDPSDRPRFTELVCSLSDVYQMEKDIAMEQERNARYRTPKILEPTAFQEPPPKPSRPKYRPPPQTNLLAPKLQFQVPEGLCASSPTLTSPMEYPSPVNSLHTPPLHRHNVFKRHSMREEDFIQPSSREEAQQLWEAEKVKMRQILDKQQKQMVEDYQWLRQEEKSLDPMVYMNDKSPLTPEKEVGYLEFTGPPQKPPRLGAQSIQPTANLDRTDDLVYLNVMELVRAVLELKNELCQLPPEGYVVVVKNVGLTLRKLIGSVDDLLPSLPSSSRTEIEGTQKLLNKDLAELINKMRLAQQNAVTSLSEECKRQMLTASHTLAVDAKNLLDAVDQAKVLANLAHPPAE

Structure (SMILES): O=C(Oc1ccc2c(c1)O/C(=C\c1ccncc1)C2=O)c1ccccc1
- EC50 [1]: > 99 µM (inactive)
- EC50 [2]: 48 µM (inactive)
- IC50 [3]: 15.5 µM (not active)
- IC50 [4]: 11.7 µM (not active)

Structure (SMILES): O=C1c2ccccc2CC1Sc1nnc(-c2ccncc2)o1 (stereo not drawn)
- IC50 [5]: > 100 µM (active)
- AC50 [6]: 268 µM (active)

Structure (SMILES): Cc1ccc(C(=O)CSc2nsc(C)c2C#N)cc1
- EC50 [7]: 0.646 µM (active)
- EC50 [8]: > 120 µM (not active)
- EC50 [9]: < 0.1 µM (inconclusive)
- EC50 [10]: 0.976 µM (active)
- EC50 [11]: 1.49 µM (active)

Structure (SMILES): CC(=O)SC(C[N+](=O)[O-])c1cn(C(C)=O)c2ccccc12 (stereo not drawn)
- AC50 [12]: 1.48 µM (active)
- IC50 [13]: 14.4 µM (not active)
- EC50 [14]: 19.5 µM (active)
- EC50 [15]: > 150 µM (inconclusive)
- EC50 [16]: > 32 µM (inactive)
- EC50 [17]: 6.21 µM (inconclusive)
- AC50 [18]: 3.54 µM (active)
- EC50 [19]: 6.84 µM (active)
- EC50 [20]: 6.74 µM (active)
- EC50 [21]: 12.9 µM (inconclusive)
- EC50 [22]: 5.02 µM (inconclusive)
- IC50 [23]: 14.5 µM (active)

Structure (SMILES): CN1c2cccc3cccc(c23)N(C)C1(C)C
- IC50 [24]: > 50 µM (not active)
- IC50 [25]: > 50 µM (not active)
- AC50 [26]: 11.4 µM (active)

Structure (SMILES): Ic1ccc(-c2nc(-c3ccccc3)c(-c3ccccc3)[nH]2)cc1
- IC50 [27]: > 17 µM (not active)

Structure (SMILES): COCCO/C(O)=C1\C(C)=NC2=C(C(=O)CC(c3cccs3)C2)C1c1ccsc1 (stereo not drawn)
- IC50 [28]: > 69.5 µM (not active)

Reference: ChEMBL document CHEMBL1201862, “PubChem BioAssay data set” (2004)
